The test system of assay [1] is HeLa. Briefly: Cytotoxicity against human HeLa cells assessed as inhibition of cell growth by MTT assay. The format is functional, cell-based.
The subject of assay [2] is MCF7. Briefly: Cytotoxicity against human MCF7 cells assessed as inhibition of cell growth by MTT assay. The format is functional, cell-based.
Assay [3] concerns SGC-7901. The experiment in a line: Cytotoxicity against human SGC-7901 cells assessed as inhibition of cell growth by MTT assay. The format is functional, cell-based.
Assay [4] deals with A549. Briefly: Cytotoxicity against human A549 cells assessed as inhibition of cell growth by MTT assay. The format is functional, cell-based. On the technique in general: Tetrazolium dyes change colour on reduction, which living cells bring about.
Assay [5] deals with Calf thymus DNA. Briefly: Binding affinity to calf thymus DNA assessed as DNA intercalation by measuring binding constant by fluorescence spectroscopic assay. The format is nucleic-acid assay. To be noted: Bos taurus.
Assay [6] concerns HeLa. The experiment in a line: Cytotoxicity against human HeLa cells assessed as inhibition of cell growth incubated for 48 hrs by MTT spectrophotometric assay. The format is functional, cell-based.
In assay [7] the test system is SGC-7901. Briefly: Cytotoxicity against human SGC-7901 cells assessed as inhibition of cell growth incubated for 48 hrs by MTT spectrophotometric assay. The format is functional, cell-based. Conditions: SGC-7901, 48 h.
Assay [8] has as its system A549. Briefly: Cytotoxicity against human A549 cells assessed as inhibition of cell growth incubated for 48 hrs by MTT spectrophotometric assay. The format is functional, cell-based. Conditions: A549, 48 h.
Assay [9] concerns Calf thymus DNA. Briefly: Binding affinity to calf thymus DNA assessed as binding constant by UV-Vis spectroscopic analysis. The format is nucleic-acid assay. Conditions: Bos taurus.
Assay [10] has as its system MCF7. Briefly: Antiproliferative activity against human MCF7 cells assessed as inhibition of cell proliferation. The format is functional, cell-based.
The next assay has as its system HT-29. The experiment in a line: Antiproliferative activity against human HT-29 cells assessed as inhibition of cell proliferation. The format is functional, cell-based.
The subject of assay [11] is Calf thymus DNA. Briefly: Binding affinity to calf thymus DNA assessed as DNA intercalation by measuring change in melting temperature by thermal denaturation assay based UV-Vis spectrophotometric analysis. The format is nucleic-acid assay. Conditions: Bos taurus.
The test system of assay [12] is Calf thymus DNA. The experiment in a line: Binding affinity to calf thymus DNA assessed as DNA intercalation by measuring change in melting temperature by thermal denaturation assay. To be noted: Bos taurus. The format is nucleic-acid assay.
Assay [13] deals with HL-60. The experiment in a line: Antiproliferative activity against human HL-60 cells assessed as inhibition of cell growth. The format is functional, cell-based.
In assay [14] the test system is A549. The experiment in a line: Antiproliferative activity against human A549 cells assessed as inhibition of cell growth. The format is functional, cell-based.
Assay [15] has as its system HeLa. Briefly: Antiproliferative activity against human HeLa cells assessed as inhibition of cell growth. The format is functional, cell-based.
Another assay relates to SK-MEL-28. The experiment in a line: Growth inhibition against human SK-MEL-28 cells at 10 uM incubated for 48 hrs by sulforhodamine B reagent assay. The format is functional. To be noted: read-out: GI. (In general: In SRB staining, fixed cells bind dye roughly in proportion to their protein.)
For assay [16], the system named is HL-60. Briefly: Cytotoxicity against human HL-60 cells assessed as inhibition of cell growth incubated for 96 hrs by MTT assay. The format is functional, cell-based. Conditions: HL-60, 96 h.
The test system of a further assay is U-937. Briefly: Cytotoxicity against human U-937 cells assessed as inhibition of cell growth incubated for 96 hrs by MTT assay. The format is functional, cell-based. To be noted: U-937, 96 h.
A further assay relates to A2780. The experiment in a line: Cytotoxicity against human A2780 cells assessed as inhibition of cell growth incubated for 72 hrs by SRB assay. The format is functional, cell-based. To be noted: A2780, 72 h.
The subject of the next assay is Staphylococcus aureus. Briefly: Antibacterial activity against Staphylococcus aureus MTCC 96 assessed as inhibition of bacterial growth by agar well diffusion assay. The format is functional. A general note: Agar diffusion results depend on both activity and mobility in agar.
Assay [17] concerns Staphylococcus epidermidis. The experiment in a line: Antibacterial activity against Staphylococcus epidermidis MTCC 435 assessed as inhibition of bacterial growth by agar well diffusion assay. The format is functional.
A further assay deals with Escherichia coli. The experiment in a line: Antibacterial activity against Escherichia coli MTCC 443 assessed as inhibition of bacterial growth by agar well diffusion assay. The format is functional.
In a further assay the test system is Pseudomonas aeruginosa. Briefly: Antibacterial activity against Pseudomonas aeruginosa MTCC 741 assessed as inhibition of bacterial growth by agar well diffusion assay. The format is functional.
The test system of the next assay is HCT-116. The experiment in a line: Cytotoxicity against human HCT-116 cells assessed as inhibition of cell growth incubated for 24 hrs by XTT assay. The format is functional, cell-based. Conditions: HCT-116, 24 h.
A further assay has as its system PANC-1. The experiment in a line: Cytotoxicity against human PANC-1 cells assessed as inhibition of cell growth incubated for 24 hrs by XTT assay. The format is functional, cell-based. Conditions: PANC-1, 24 h.
Assay [18] deals with Calf thymus DNA. Briefly: Binding affinity to calf thymus DNA assessed as binding constant incubated for 30 mins by fluorescence based EtBr-displacement assay. The format is nucleic-acid assay. To be noted: Bos taurus.
A short description of assay [19]: Antioxidant activity assessed as DPPH radical scavenging activity incubated for 30 mins by UV-Vis spectrophotometer assay. The format is functional.
Assay [20] in a line: Antioxidant activity assessed as hydrogen peroxide free radical scavenging activity incubated for 10 mins. The format is functional.
In assay [21] the test system is MCF7. Briefly: Cytotoxicity against human MCF7 cells assessed as inhibition of cell growth incubated for 24 hrs by CCK-8 assay. The format is functional, cell-based. Conditions: MCF7, 24 h.

Converted amounts (≈) assume the structure as drawn. Some results are limits rather than exact numbers.

Consider 16 molecules from ChEMBL document CHEMBL5244223, “l,8-Naphthalimide based DNA intercalators and anticancer agents. A systematic review from 2007 to 2017” (Eur J Med Chem, 2018).

What is called IC50 is the midpoint of a concentration-inhibition curve. With `CN(C)CCN1C(=O)c2cccc3c(N4CCC[C@H]4CO)ccc(c23)C1=O`, the half-maximal inhibitory concentration (IC50) in the assay with HeLa [1], in the assay on MCF7 [2], with SGC-7901 [3] and with A549 [4] was 0.87 µM each time. For the same molecule, in the assay on Calf thymus DNA [5], the Kb is 1.8 10^4/M.

For the molecule `CN(C)CCN1C(=O)c2cccc3c(N4CCN(CCCO)CC4)ccc(c23)C1=O`, the half-inhibitory concentration (IC50) in the assay on HeLa [6], in the assay with SGC-7901 [7] and in the assay on A549 [8] was < 7 µM in each case. Also, the Kb with Calf thymus DNA [9] is 0.47 10^5/M.

A word on the ΔTm: it is the shift of the melting midpoint relative to a reference. For `O=C1c2cccc3cccc(c23)C(=O)N1CCCn1cc[n+](Cc2ccccc2)c1`, the 50% inhibitory concentration (IC50) in the assay on MCF7 [10] and in the assay with HT-29 was 4.6 µM in each case. For the same molecule, in the assay on Calf thymus DNA [11], the shift in melting temperature (ΔTm) was 3 °C.

Turning to `CN(C)CCN1C(=O)c2cccc3c(NCCNCCNCCNCCN)ccc(c23)C1=O`, the ΔTm in the assay on Calf thymus DNA [12] is 11.8 °C. In addition, the IC50 in the assay with HL-60 [13], in the assay with A549 [14] and in the assay on HeLa [15] was 13.1 µM in each case.

Take `O=C1c2cccc3cccc(c23)C(=O)N1CCCCCN1CCN(CCCCCOc2ccc(-c3nc4ccc(N5CCOCC5)cc4[nH]3)cc2)CC1`: the inhibition of growth at 10 µM in the assay on SK-MEL-28 was found to be 50%.

For the molecule `CC[n+]1ccn(CCCN2C(=O)c3cccc4cccc(c34)C2=O)c1`, the IC50 in the assay on MCF7 [10] and with HT-29 was 4.6 µM throughout. Moreover, the thermal shift (ΔTm) in the assay on Calf thymus DNA [11] was 3 °C.

With `C[n+]1ccn(CCCN2C(=O)c3cccc4cccc(c34)C2=O)c1`, the half-maximal inhibitory concentration (IC50) in the assay with MCF7 [10] and with HT-29 was 4.6 µM throughout. Moreover, the ΔTm with Calf thymus DNA [11] was found to be 3 °C.

Consider `O=C1c2cccc3c([N+](=O)[O-])ccc(c23)C(=O)N1CCO`, for which the IC50 in the assay with HL-60 [16] and in the assay with U-937 was 0.7 µM in each case.

Take `O=C1c2cccc3cccc(c23)C(=O)N1CCCCN1CCN(CCCCOc2ccc(-c3nc4ccc(N5CCOCC5)cc4[nH]3)cc2)CC1`: the inhibition of growth at 10 µM with SK-MEL-28 worked out at 50%.

The term MIC denotes the lowest concentration that inhibits growth of the organism. On to `COc1cccc2cc(-c3csc(N4C(=O)c5ccc6c7c(ccc(c57)C4=O)C(=O)N(c4nc(-c5cc7cccc(OC)c7oc5=O)cs4)C6=O)n3)c(=O)oc12`, for which, in the assay with Calf thymus DNA [12], the thermal shift (ΔTm) was found to be 0.1 °C. In the assay on A2780, the half-maximal inhibitory concentration (IC50) was < 0.1 µM. Besides, the minimum inhibitory concentration (MIC) (in the assay with Staphylococcus aureus; in [17]; in the assay on Escherichia coli; in the assay with Pseudomonas aeruginosa) was 18.8 µg/mL (≈ 24 µM) each time.

Turning to `CN(C)CCN1C(=O)c2cccc3c(NCCNCCNCCN)ccc(c23)C1=O`, the shift in melting temperature (ΔTm) in the assay on Calf thymus DNA [12] amounted to 11.8 °C. Besides, the IC50 in the assay with HL-60 [13], in the assay with A549 [14] and with HeLa [15] was 13.1 µM each time.

`CN(C)CCN1C(=O)c2cccc3c(N(C)CCCl)ccc(c23)C1=O`: the IC50 in the assay with HCT-116 and in the assay with PANC-1 was 1.9 µM throughout.

Regarding `O=C1c2cccc3c([N+](=O)[O-])ccc(c23)C(=O)N1CCCO`, the IC50 with HL-60 [16] and with U-937 was 0.7 µM each time.

For the molecule `CCOc1cc(/C=N/N2C(=O)c3cccc4cccc(c34)C2=O)ccc1O`, the Kb with Calf thymus DNA [18] was 3.33 10^4/M. The results for the 50% inhibitory concentration (IC50) in assay [19] and in [20] were 1280 µg/mL (≈ 3550 µM) and 1060 µg/mL (≈ 2940 µM), respectively.

On to `CN(C)CCCNc1ccc2c3c(cccc13)C(=O)N(CCCN(C)C)C2=O`, for which the IC50 in the assay with MCF7 [21] amounted to 2.04 µM.

Consider `CN(C)CCCN1C(=O)c2cccc3c(NCCNC(=N)N)ccc(c23)C1=O`, for which the half-maximal inhibitory concentration (IC50) in the assay with MCF7 [21] was 10.4 µM.
